The subject of data set [1] is SARS-CoV-2. Briefly: microbe, parasite or virus in culture. Conditions: Severe acute respiratory syndrome coronavirus 2, Vero C1008, 48 h.
Data set [2] relates to SARS-CoV-2. Briefly: microbe, parasite or virus in culture. The format is functional, organism-based, Chlorocebus sabaeus, Vero C1008. Conditions: Severe acute respiratory syndrome coronavirus 2, Vero C1008, 48 h.
A short description of another data set: in vitro. Conditions: chlorocebus sabaeus.
The mark [3] stands for this setting: Vero E6 (Vero C1008) cells, CC50.
Setting [4] is: Vero E6 (Vero C1008) cells, pCC50.

Some results are limits rather than exact numbers.

The results in this text go back to ChEMBL document CHEMBL4651402, “Screening of ~5500 FDA-approved drugs and clinical candidates for anti-SARS-CoV-2 activity” (2021).

Regarding `CNCCC=C1c2ccccc2CCc2ccccc21` [NORTRIPTYLINE], the IC50 was 15.9 µM in the data set with SARS-CoV-2 [1], 15.8 µM in the data set with SARS-CoV-2 [1] (read-out: pIC50 (converted)), above 100 µM in the data set with SARS-CoV-2 [2] (read-out: IC50) and above 100 µM in the data set with SARS-CoV-2 [2] (read-out: pIC50 (converted)). In addition, the CC50 at 48 h in the data set “in vitro” (vero c1008, CC50) is 24 µM; in “in vitro” (vero c1008, pCC50), 24 µM.

Turning to `CN(C)CCON=C1c2ccccc2CCc2ccccc21` [NOXIPTILINE], the IC50 with SARS-CoV-2 [1] is 14.1 µM; in the data set with SARS-CoV-2 [1] (read-out: pIC50 (converted)), 14.1 µM; in the data set with SARS-CoV-2 [2] (read-out: IC50), above 100 µM; in the data set with SARS-CoV-2 [2] (read-out: pIC50 (converted)) it was above 100 µM. Moreover, the CC50 at 48 h in “in vitro” (setting [3]) and in “in vitro” (setting [4]) was 77.6 µM in each case.

Turning to `Cc1[nH]c(/C=C2\C(=O)Nc3ccccc32)c(C)c1CCC(=O)O` [ORANTINIB], the IC50 was around 1.78 µM with SARS-CoV-2 [1], around 1.78 µM with SARS-CoV-2 [1] (read-out: pIC50 (converted)), above 25.1 µM with SARS-CoV-2 [2] (read-out: IC50) and above 25.1 µM in the data set on SARS-CoV-2 [2] (read-out: pIC50 (converted)). Moreover, the CC50 at 48 h in “in vitro” (setting [3]) and in the data set “in vitro” (setting [4]) was above 25.1 µM throughout.

As for `C=CC(=O)Nc1cc(Nc2nccc(-c3cn(C)c4ccccc34)n2)c(OC)cc1N(C)CCN(C)C` [OSIMERTINIB], the IC50 in the data set on SARS-CoV-2 [1], in the data set with SARS-CoV-2 [1] (read-out: pIC50 (converted)), in the data set on SARS-CoV-2 [2] (read-out: IC50) and in the data set with SARS-CoV-2 [2] (read-out: pIC50 (converted)) was above 100 µM throughout. For the same molecule, the CC50 at 48 h in “in vitro” (setting [3]) and in the data set “in vitro” (setting [4]) was 3.09 µM in each case.

Regarding `CNCC(O)CC12CCC(c3ccccc31)c1ccccc12` (stereo not given) [OXAPROTILINE], the IC50 in the data set with SARS-CoV-2 [1], with SARS-CoV-2 [1] (read-out: pIC50 (converted)), with SARS-CoV-2 [2] (read-out: IC50) and in the data set with SARS-CoV-2 [2] (read-out: pIC50 (converted)) was above 100 µM each time. Further, the CC50 at 48 h in the data set “in vitro” (setting [3]) and in “in vitro” (setting [4]) was 28.2 µM throughout.

On to `O=C(O)CCc1nc(-c2ccccc2)c(-c2ccccc2)o1` [OXAPROZIN], for which the IC50 in the data set with SARS-CoV-2 [1] was 11.8 µM; with SARS-CoV-2 [1] (read-out: pIC50 (converted)), 11.7 µM; in the data set with SARS-CoV-2 [2] (read-out: IC50) it was above 50.1 µM; in the data set on SARS-CoV-2 [2] (read-out: pIC50 (converted)), above 50.1 µM. Further, the CC50 at 48 h in “in vitro” (setting [3]) and in “in vitro” (setting [4]) was above 50.1 µM in each case.

As to `O=c1[nH]c2ccccc2n1CCCN1CCN(C(c2ccccc2)c2ccccc2)CC1` [OXATOMIDE], the IC50 with SARS-CoV-2 [1], in the data set on SARS-CoV-2 [1] (read-out: pIC50 (converted)), with SARS-CoV-2 [2] (read-out: IC50) and in the data set with SARS-CoV-2 [2] (read-out: pIC50 (converted)) was above 100 µM each time. In addition, the CC50 at 48 h in the data set “in vitro” (setting [3]) and in the data set “in vitro” (setting [4]) was around 12.6 µM each time.

Turning to `CN(C(=O)CN(CCO)CC(=O)N(C)C(C)(C)Cc1ccccc1)C(C)(C)Cc1ccccc1` [OXETHAZAINE], the IC50 with SARS-CoV-2 [1] was 18.6 µM; in the data set with SARS-CoV-2 [1] (read-out: pIC50 (converted)), 18.6 µM; with SARS-CoV-2 [2] (read-out: IC50) it was above 100 µM; in the data set with SARS-CoV-2 [2] (read-out: pIC50 (converted)), above 100 µM. Besides, the CC50 at 48 h in “in vitro” (setting [3]) and in the data set “in vitro” (setting [4]) was 26.3 µM throughout.

On to `N=C(N)c1ccc(C=C2c3ccccc3-c3ccccc32)cc1` [PARANYLINE], for which the IC50 was 3.47 µM in the data set on SARS-CoV-2 [1], 3.47 µM in the data set on SARS-CoV-2 [1] (read-out: pIC50 (converted)), above 100 µM in the data set with SARS-CoV-2 [2] (read-out: IC50) and above 100 µM with SARS-CoV-2 [2] (read-out: pIC50 (converted)). In addition, the values for the CC50 at 48 h in “in vitro” (setting [3]) and in the data set “in vitro” (setting [4]) were 2.92 µM and 2.88 µM, respectively.

On to `Fc1ccc([C@@H]2CCNC[C@H]2COc2ccc3c(c2)OCO3)cc1` [PAROXETINE], for which the IC50 in the data set on SARS-CoV-2 [1] is 15.1 µM; in the data set with SARS-CoV-2 [1] (read-out: pIC50 (converted)), 15.1 µM; in the data set with SARS-CoV-2 [2] (read-out: IC50), above 100 µM; in the data set with SARS-CoV-2 [2] (read-out: pIC50 (converted)), above 100 µM. The CC50 at 48 h in the data set “in vitro” (setting [3]) and in the data set “in vitro” (setting [4]) was 16.6 µM in each case.

Consider `CC(C)(C)NC[C@H](O)COc1ccccc1C1CCCC1` [PENBUTOLOL], for which the IC50 with SARS-CoV-2 [1] is 15.1 µM; with SARS-CoV-2 [1] (read-out: pIC50 (converted)), 15.1 µM; with SARS-CoV-2 [2] (read-out: IC50), 20 µM; with SARS-CoV-2 [2] (read-out: pIC50 (converted)), 20 µM. Also, the CC50 at 48 h in the data set “in vitro” (setting [3]) and in “in vitro” (setting [4]) was 29.5 µM each time.

With `OC1(c2ccc(Cl)c(C(F)(F)F)c2)CCN(CCCC(c2ccc(F)cc2)c2ccc(F)cc2)CC1` [PENFLURIDOL], the IC50 in the data set with SARS-CoV-2 [1], in the data set on SARS-CoV-2 [1] (read-out: pIC50 (converted)), in the data set with SARS-CoV-2 [2] (read-out: IC50) and in the data set on SARS-CoV-2 [2] (read-out: pIC50 (converted)) was above 100 µM throughout. In addition, the results for the CC50 at 48 h in the data set “in vitro” (setting [3]) and in the data set “in vitro” (setting [4]) were 3.59 µM and 3.55 µM, respectively.

Regarding `CN1CCN(CCCN2c3ccccc3Sc3ccccc32)CC1` [PERAZINE], the IC50 is 14 µM in the data set with SARS-CoV-2 [1], 13.8 µM in the data set with SARS-CoV-2 [1] (read-out: pIC50 (converted)), above 100 µM with SARS-CoV-2 [2] (read-out: IC50) and above 100 µM in the data set with SARS-CoV-2 [2] (read-out: pIC50 (converted)). In addition, the CC50 at 48 h in “in vitro” (setting [3]) is 14.6 µM; in “in vitro” (setting [4]), 14.5 µM.

With `N#Cc1ccc2c(c1)N(CCCN1CCC(O)CC1)c1ccccc1S2` [PERICIAZINE], the IC50 with SARS-CoV-2 [1] is above 20 µM; in the data set with SARS-CoV-2 [1] (read-out: pIC50 (converted)) it was above 20 µM; in the data set on SARS-CoV-2 [2] (read-out: IC50), above 100 µM; with SARS-CoV-2 [2] (read-out: pIC50 (converted)) it was above 100 µM. Moreover, the CC50 at 48 h in “in vitro” (setting [3]) was 12.7 µM; in the data set “in vitro” (setting [4]), 12.6 µM.

For `CN1CCC(=C2c3ccccc3Sc3ccccc32)CC1` [PIMETHIXENE], the IC50 in the data set with SARS-CoV-2 [1], in the data set with SARS-CoV-2 [1] (read-out: pIC50 (converted)), in the data set with SARS-CoV-2 [2] (read-out: IC50) and with SARS-CoV-2 [2] (read-out: pIC50 (converted)) was above 100 µM throughout. In addition, the CC50 at 48 h in “in vitro” (setting [3]) and in the data set “in vitro” (setting [4]) was 25.7 µM in each case.
